Experimental data: the kinase profiling compilation of Christmann-Franck et al. (2016)

What was measured:
Experiment in all cases: KINOMEscan competition binding
Settings in all cases: compound 10.0 µM; call rule not given here
ACVR1B (human) = ACVR1B (human) (UniProt P36896)
ADCK3 (human) = ADCK3 (human) (UniProt Q8NI60)
ADCK4 (human) = ADCK4 (human) (UniProt Q96D53)
AKT1 (human) = AKT1 (human) (UniProt P31749)
AKT3 (human) = AKT3 (human) (UniProt Q9Y243)
CAMK2B (human) = CAMK2B (human) (UniProt Q13554)
CLK3 (human) = CLK3 (human) (UniProt P49761)
CSK (human) = CSK (human) (UniProt P41240)
DMPK (human) = DMPK (human) (UniProt Q09013)
EPHA4 (human) = EPHA4 (human) (UniProt P54764)
EPHB3 (human) = EPHB3 (human) (UniProt P54753)
ERBB2 (human) = ERBB2 (human) (UniProt P04626)
ERBB4 (human) = ERBB4 (human) (UniProt Q15303)
IGF1R (human) = IGF1R (human) (UniProt P08069)
INSR (human) = INSR (human) (UniProt P06213)
[1] = target: JAK1 JH2 pseudokinase (human) (UniProt P23458)
LIMK1 (human) = LIMK1 (human) (UniProt P53667)
LIMK2 (human) = LIMK2 (human) (UniProt P53671)
MAP3K4 (human) = MAP3K4 (human) (UniProt Q9Y6R4)
MAPK1 (human) = MAPK1 (human) (UniProt P28482)
MAPK11 (human) = MAPK11 (human) (UniProt Q15759)
MAPK3 (human) = MAPK3 (human) (UniProt P27361)
MAPK9 (human) = MAPK9 (human) (UniProt P45984)
MARK1 (human) = MARK1 (human) (UniProt Q9P0L2)
NTRK1 (human) = NTRK1 (human) (UniProt P04629)
PAK4 (human) = PAK4 (human) (UniProt O96013)
PHKG1 (human) = PHKG1 (human) (UniProt Q16816)
PHKG2 (human) = PHKG2 (human) (UniProt P15735)
PRKCA (human) = PRKCA (human) (UniProt P17252)
PRKX (human) = PRKX (human) (UniProt P51817)
RIPK2 (human) = RIPK2 (human) (UniProt O43353)
ROS1 (human) = ROS1 (human) (UniProt P08922)
RPS6KA3 KD1 (human) = RPS6KA3 KD1 (human) (UniProt P51812)
RPS6KA5 KD1 (human) = RPS6KA5 KD1 (human) (UniProt O75582)
RPS6KA6 KD1 (human) = RPS6KA6 KD1 (human) (UniProt Q9UK32)
STK32B (human) = STK32B (human) (UniProt Q9NY57)
STK32C (human) = STK32C (human) (UniProt Q86UX6)
STK36 (human) = STK36 (human) (UniProt Q9NRP7)
TLK2 (human) = TLK2 (human) (UniProt Q86UE8)
TXK (human) = TXK (human) (UniProt P42681)
Sequence of TXK (human) (P42681 whole entry, looked up): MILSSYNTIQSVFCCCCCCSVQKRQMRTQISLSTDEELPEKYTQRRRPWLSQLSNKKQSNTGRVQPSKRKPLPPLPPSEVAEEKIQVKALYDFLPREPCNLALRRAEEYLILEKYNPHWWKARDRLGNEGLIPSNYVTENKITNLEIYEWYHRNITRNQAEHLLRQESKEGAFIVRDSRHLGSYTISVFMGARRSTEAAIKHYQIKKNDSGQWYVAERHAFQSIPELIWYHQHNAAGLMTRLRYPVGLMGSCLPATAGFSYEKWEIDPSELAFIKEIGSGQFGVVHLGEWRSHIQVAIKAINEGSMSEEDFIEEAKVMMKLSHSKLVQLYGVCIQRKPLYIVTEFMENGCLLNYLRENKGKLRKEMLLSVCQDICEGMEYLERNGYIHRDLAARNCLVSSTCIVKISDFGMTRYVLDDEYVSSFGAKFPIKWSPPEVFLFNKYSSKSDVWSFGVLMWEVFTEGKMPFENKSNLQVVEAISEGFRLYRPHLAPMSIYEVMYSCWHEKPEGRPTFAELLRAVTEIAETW

Sequence of ERBB2 (human) (P04626 whole entry, looked up): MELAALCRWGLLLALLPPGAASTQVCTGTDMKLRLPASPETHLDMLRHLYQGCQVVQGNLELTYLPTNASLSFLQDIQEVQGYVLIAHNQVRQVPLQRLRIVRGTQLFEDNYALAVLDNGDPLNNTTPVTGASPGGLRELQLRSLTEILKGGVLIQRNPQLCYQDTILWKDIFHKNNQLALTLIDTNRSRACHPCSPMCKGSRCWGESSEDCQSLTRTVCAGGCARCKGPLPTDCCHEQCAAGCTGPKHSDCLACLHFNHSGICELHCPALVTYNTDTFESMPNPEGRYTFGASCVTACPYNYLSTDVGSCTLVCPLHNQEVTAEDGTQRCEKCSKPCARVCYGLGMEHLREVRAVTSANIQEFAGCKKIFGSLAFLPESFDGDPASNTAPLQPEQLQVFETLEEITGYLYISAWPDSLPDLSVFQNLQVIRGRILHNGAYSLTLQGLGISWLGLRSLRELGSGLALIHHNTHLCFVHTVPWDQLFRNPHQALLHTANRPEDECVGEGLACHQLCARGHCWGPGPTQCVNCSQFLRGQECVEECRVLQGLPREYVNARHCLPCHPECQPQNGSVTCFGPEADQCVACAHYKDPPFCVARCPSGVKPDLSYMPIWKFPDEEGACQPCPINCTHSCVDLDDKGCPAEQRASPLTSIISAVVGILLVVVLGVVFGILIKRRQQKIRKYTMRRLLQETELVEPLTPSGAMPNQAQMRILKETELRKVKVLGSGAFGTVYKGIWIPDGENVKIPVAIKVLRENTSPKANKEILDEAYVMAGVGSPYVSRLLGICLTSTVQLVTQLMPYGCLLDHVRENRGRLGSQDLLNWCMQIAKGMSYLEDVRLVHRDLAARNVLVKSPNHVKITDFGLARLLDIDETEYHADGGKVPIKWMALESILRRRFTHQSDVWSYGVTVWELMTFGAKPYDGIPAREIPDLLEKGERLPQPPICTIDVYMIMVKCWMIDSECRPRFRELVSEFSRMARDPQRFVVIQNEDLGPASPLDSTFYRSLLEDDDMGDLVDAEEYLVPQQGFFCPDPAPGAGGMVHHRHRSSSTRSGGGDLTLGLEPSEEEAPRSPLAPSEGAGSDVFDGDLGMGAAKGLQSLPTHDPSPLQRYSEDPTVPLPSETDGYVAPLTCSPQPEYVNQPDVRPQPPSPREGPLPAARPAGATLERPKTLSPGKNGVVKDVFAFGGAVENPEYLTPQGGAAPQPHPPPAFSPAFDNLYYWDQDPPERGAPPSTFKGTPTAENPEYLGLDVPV
Sequence of MAP3K4 (human) (Q9Y6R4 whole entry, looked up): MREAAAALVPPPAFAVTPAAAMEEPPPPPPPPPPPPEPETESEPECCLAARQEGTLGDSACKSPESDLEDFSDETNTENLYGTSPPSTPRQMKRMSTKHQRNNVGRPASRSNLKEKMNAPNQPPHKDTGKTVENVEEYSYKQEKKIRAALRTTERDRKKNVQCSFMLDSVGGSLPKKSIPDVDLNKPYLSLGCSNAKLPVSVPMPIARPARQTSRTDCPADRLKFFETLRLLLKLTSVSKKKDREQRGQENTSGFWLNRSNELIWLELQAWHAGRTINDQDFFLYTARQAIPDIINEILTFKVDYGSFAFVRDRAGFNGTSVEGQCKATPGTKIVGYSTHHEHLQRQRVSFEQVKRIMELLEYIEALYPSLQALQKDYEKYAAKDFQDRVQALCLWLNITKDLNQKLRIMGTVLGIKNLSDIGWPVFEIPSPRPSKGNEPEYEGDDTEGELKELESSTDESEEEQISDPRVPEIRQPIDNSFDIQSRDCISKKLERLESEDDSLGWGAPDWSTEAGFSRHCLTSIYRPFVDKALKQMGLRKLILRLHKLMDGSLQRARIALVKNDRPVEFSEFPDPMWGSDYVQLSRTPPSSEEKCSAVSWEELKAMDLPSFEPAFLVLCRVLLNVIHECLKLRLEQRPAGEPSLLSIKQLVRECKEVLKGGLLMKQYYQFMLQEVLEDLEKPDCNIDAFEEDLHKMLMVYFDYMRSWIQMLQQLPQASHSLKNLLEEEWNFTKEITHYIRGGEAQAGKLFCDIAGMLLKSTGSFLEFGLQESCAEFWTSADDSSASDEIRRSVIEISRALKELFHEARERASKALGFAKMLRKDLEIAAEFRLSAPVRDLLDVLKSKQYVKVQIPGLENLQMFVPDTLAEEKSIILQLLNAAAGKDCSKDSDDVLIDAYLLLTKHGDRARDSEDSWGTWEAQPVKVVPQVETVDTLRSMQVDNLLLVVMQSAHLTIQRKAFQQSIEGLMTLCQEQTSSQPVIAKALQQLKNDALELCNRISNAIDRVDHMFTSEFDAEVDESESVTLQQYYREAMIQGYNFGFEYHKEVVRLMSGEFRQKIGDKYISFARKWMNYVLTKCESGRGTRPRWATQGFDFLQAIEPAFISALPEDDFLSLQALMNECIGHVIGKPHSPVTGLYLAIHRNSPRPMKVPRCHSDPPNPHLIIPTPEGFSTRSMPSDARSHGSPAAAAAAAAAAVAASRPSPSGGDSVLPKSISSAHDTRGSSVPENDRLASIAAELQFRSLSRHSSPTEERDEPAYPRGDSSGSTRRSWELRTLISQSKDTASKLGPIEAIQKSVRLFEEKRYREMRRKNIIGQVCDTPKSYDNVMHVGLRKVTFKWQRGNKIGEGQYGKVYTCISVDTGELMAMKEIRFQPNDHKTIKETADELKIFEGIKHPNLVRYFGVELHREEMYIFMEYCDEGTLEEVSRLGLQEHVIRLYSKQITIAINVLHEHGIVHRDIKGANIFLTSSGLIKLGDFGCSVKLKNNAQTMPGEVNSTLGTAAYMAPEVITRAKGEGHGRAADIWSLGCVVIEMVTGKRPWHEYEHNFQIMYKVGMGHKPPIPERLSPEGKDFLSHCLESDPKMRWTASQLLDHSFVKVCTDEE
Sequence of STK32B (human) (Q9NY57 whole entry, looked up): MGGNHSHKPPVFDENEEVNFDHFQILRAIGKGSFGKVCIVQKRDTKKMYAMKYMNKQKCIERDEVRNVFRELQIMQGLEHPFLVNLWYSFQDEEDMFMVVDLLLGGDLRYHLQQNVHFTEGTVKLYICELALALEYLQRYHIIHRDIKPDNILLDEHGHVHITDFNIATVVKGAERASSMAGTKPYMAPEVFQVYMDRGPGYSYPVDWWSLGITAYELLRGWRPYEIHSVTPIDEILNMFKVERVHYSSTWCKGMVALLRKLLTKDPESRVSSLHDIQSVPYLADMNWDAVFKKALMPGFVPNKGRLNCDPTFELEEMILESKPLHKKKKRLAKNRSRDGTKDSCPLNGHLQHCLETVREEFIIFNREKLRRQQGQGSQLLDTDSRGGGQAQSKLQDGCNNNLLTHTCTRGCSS
Sequence of PHKG1 (human) (Q16816 whole entry, looked up): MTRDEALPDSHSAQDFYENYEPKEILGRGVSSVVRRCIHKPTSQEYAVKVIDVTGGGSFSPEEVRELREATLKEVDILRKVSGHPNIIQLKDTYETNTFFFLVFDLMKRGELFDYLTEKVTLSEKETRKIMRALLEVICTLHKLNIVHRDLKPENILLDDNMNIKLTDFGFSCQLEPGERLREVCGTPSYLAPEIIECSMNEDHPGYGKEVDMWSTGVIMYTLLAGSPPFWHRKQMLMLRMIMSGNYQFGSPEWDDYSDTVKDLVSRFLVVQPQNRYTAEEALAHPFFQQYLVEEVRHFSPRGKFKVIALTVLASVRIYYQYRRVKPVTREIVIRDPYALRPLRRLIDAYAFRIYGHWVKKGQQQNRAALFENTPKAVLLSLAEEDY

kinase still bound, per cent of control (ACVR1B (human)) | kinase still bound, per cent of control (ADCK3 (human)) | kinase still bound, per cent of control (ADCK4 (human)) | kinase still bound, per cent of control (AKT1 (human)) | kinase still bound, per cent of control (AKT3 (human)) | kinase still bound, per cent of control (CAMK2B (human)) | kinase still bound, per cent of control (CLK3 (human)) | kinase still bound, per cent of control (CSK (human)) | kinase still bound, per cent of control (DMPK (human)) | kinase still bound, per cent of control (EPHA4 (human)) | kinase still bound, per cent of control (EPHB3 (human)) | kinase still bound, per cent of control (ERBB2 (human)) | kinase still bound, per cent of control (ERBB4 (human)) | kinase still bound, per cent of control (IGF1R (human)) | kinase still bound, per cent of control (INSR (human)) | kinase still bound, per cent of control [1] | kinase still bound, per cent of control (LIMK1 (human)) | kinase still bound, per cent of control (LIMK2 (human)) | kinase still bound, per cent of control (MAP3K4 (human)) | kinase still bound, per cent of control (MAPK1 (human)) | Structure (SMILES) | further results
2% | 27.2% | no effect (inactive) | no effect (inactive) | no effect (inactive) | 4.6% | 2.3% | 0% | no effect (inactive) | 3.6% | 7.2% | no effect (inactive) | 34.7% | 0% | 0% | 1.8% | no effect (inactive) | no effect (inactive) | 28.3% | 14% | CCS(=O)(=O)Nc1ccc2c(c1)[C@H](/C(=N/c1ccc(CN3CCCCC3)cc1)c1ccccc1)C(=O)N2 | kinase still bound, per cent of control (MAPK11 (human)): no effect (inactive); kinase still bound, per cent of control (MAPK3 (human)): 10.8%; kinase still bound, per cent of control (MAPK9 (human)): 0.1%; kinase still bound, per cent of control (MARK1 (human)): 0%; kinase still bound, per cent of control (NTRK1 (human)): 0%; kinase still bound, per cent of control (PAK4 (human)): 0.2%; kinase still bound, per cent of control (PHKG1 (human)): 0.1%; kinase still bound, per cent of control (PHKG2 (human)): 0%; kinase still bound, per cent of control (PRKCA (human)): 2.5%; kinase still bound, per cent of control (PRKX (human)): 24.8%; kinase still bound, per cent of control (RIPK2 (human)): 6.9%; kinase still bound, per cent of control (ROS1 (human)): 0%; kinase still bound, per cent of control (RPS6KA3 KD1 (human)): 0%; kinase still bound, per cent of control (RPS6KA5 KD1 (human)): 0%; kinase still bound, per cent of control (RPS6KA6 KD1 (human)): 0%; kinase still bound, per cent of control (STK32B (human)): 15.4%; kinase still bound, per cent of control (STK32C (human)): no effect (inactive); kinase still bound, per cent of control (STK36 (human)): no effect (inactive); kinase still bound, per cent of control (TLK2 (human)): 1.5%; kinase still bound, per cent of control (TXK (human)): 0%
no effect (inactive) | no effect (inactive) | no effect (inactive) | no effect (inactive) | no effect (inactive) | no effect (inactive) | no effect (inactive) | no effect (inactive) | no effect (inactive) | no effect (inactive) | no effect (inactive) | no effect (inactive) | no effect (inactive) | no effect (inactive) | no effect (inactive) | no effect (inactive) | no effect (inactive) | no effect (inactive) | no effect (inactive) | no effect (inactive) | Cc1ccc(NC(=O)c2cccc(N3CCCCC3)c2)cc1-c1ccc(C(=O)NCC2CC2)cc1 | kinase still bound, per cent of control (MAPK11 (human)): 0%; kinase still bound, per cent of control (MAPK3 (human)): no effect (inactive); kinase still bound, per cent of control (MAPK9 (human)): no effect (inactive); kinase still bound, per cent of control (MARK1 (human)): no effect (inactive); kinase still bound, per cent of control (NTRK1 (human)): no effect (inactive); kinase still bound, per cent of control (PAK4 (human)): no effect (inactive); kinase still bound, per cent of control (PHKG1 (human)): no effect (inactive); kinase still bound, per cent of control (PHKG2 (human)): no effect (inactive); kinase still bound, per cent of control (PRKCA (human)): no effect (inactive); kinase still bound, per cent of control (PRKX (human)): no effect (inactive); kinase still bound, per cent of control (RIPK2 (human)): no effect (inactive); kinase still bound, per cent of control (ROS1 (human)): no effect (inactive); kinase still bound, per cent of control (RPS6KA3 KD1 (human)): no effect (inactive); kinase still bound, per cent of control (RPS6KA5 KD1 (human)): no effect (inactive); kinase still bound, per cent of control (RPS6KA6 KD1 (human)): no effect (inactive); kinase still bound, per cent of control (STK32B (human)): no effect (inactive); kinase still bound, per cent of control (STK32C (human)): no effect (inactive); kinase still bound, per cent of control (STK36 (human)): no effect (inactive); kinase still bound, per cent of control (TLK2 (human)): no effect (inactive); kinase still bound, per cent of control (TXK (human)): no effect (inactive)
